According to paper PMC8486872, “A rational blueprint for the design of chemically-controlled protein switches” (Nature Communications, 2021):
Several values for one entry are separate records, joined by “and”; a condition that tells them apart may be missing. Equal entries are not always repeated.

What was measured:
Assay type in all cases: cell-based
[1] = system: Gal4/UAS SEAP expression in HEK293T cells; experiment: Drug specificity of CDH-TFs; details: Suppl Fig 7b
Experimental: Supplementary Figure 7: Dose-dependence and reversibility characterization of CDHs in CDH-
a) Background signal of SEAP reporter in the absence of the CDH-TF system. HEK239T cells were
(§1) transfected with SEAP reporter S132 and treated with 1 µM Drugs 12 hours post transfection.
(§2) Quantification of SEAP was performed 24 hours after drug treatment. b) Drug specificity of CDH-TFs. […]

[2] = system: SEAP expression in HEK293T cells; experiment: Background signal of SEAP reporter and single-construct controls
Experimental: Supplementary Figure 7: Dose-dependence and reversibility characterization of CDHs in CDH- […]
as §1, §2
Background signal of SEAP reporter in the absence of the CDH-GEMS system. HEK293T cells were transfected with pLS566 SEAP reporter plasmids and treated with drugs. Quantification of SEAP was performed 24 hours post drug treatment. f) SEAP activity upon transfecting single or paired […]
Quantification of SEAP activity of three CDHs with DMSO (dark color), specific (light color) and unspecific drug treatment (gray). […]
(culture medium) in panels of b, c, f and g were collected every 12 hours. Values were normalized to zero based on the SEAP expression at time 0. a, b, e, f, g) The bar charts show the mean ± s.d. of n = 3 biologically independent samples overlaid with a scatter dot plot of the original data points.

[3] = system: SEAP and Luciferase expression in HEK293T cells; experiment: MIMO designer cells (AIR-1/2-GEMS + CDH-3-TF); details: for SEAP: Fig5c, turn ON via AIR-2-GEMS
Text: We first engineered MIMO cells to respond to two drugs with distinct outputs (Fig. 5a) by co-transfecting the CDH-3-TF with either AIR-1-GEMS (Fig. 5b) or AIR-2-GEMS (Fig. 5c).
Fig. 5 Orthogonal chemical switches enable implementation of multi-input multi-output control modes in mammalian cells. a Scheme of multi-inputs multi-outputs (MIMO) designer cells where two drugs control two different outputs. b, c Cells were co-transfected with AIR-1/2-GEMS and CDH-3-TF regulate SEAP and Luciferase expression, respectively. […] AIR-1/2-GEMS coupled with SEAP expression circuits were co-transfected with CDH-1/2-TF circuits which control the Luciferase production. Respective drug concentrations ranged from 0.001 nM to 1 µM. All values presented are mean ± s.d. of three replicates and curves were fitted by four-parameters nonlinear regression. b, c, e, f, h, i Source data are available in the source data file.
Supplementary Figure 13: Orthogonal chemical switches enable implementation of multi-input multi-output control modes in mammalian cells. a) Dual drug toxicity tests in 293T cells. […]
concentrations of 1 nM, 10 nM, 100 nM and 1000 nM each drug in cell culture medium. CCK8 assay was performed 24 hours after drug treatment. Each bar represents the mean of three biological replicates ± s.d, overlaid with a scatter dot plot of the original data points. b-c) Cells were co-transfected with AIR-1-GEMS and CDH-3-TF regulate SEAP and Luciferase expression, respectively. Drug concentrations ranged from 0.001 nM to 1 µM and different combinations were added depending on the protein components, Drug-1 only (b) and Drug-3 only (c). d-e) Cells were co-transfected with AIR-2-GEMS and CDH-3-TF regulate SEAP and Luciferase expression, respectively. Drug concentrations ranged from 0.001 nM to 1 µM and different combinations were added depending on the protein […]
1-TF and CDH-3-TF circuits. Drug-1 concentrations ranged from 0.001 nM to 1 µM (left) and 1 µM Drug-1 with serial diluted Drug-3 from 0.001 nM to 1 µM (right). g) Quantification of SEAP activity controlled by CDH-1-GEMS and CDH-3-GEMS circuits. Drug-1 concentrations ranged from 0.001 nM to 1 µM (left) and Drug-3 dilution along with 1 µM Drug-1 (right). h-i) Quantification of SEAP and Luciferase activities under Drug-1. AIR-1-GEMS coupled with SEAP expression circuits (i) and CDH-1-TF circuits which control the Luciferase production (j). j-k) Quantification of SEAP and Luciferase activities under Drug-2. AIR-2-GEMS coupled with SEAP expression circuits (k) and CDH-2-TF circuits which control the Luciferase production (l). b-k) Each data point represents the mean of n = 3 biological replicates, and the dose-dependent curve were fitted using four-parameter nonlinear regression.

[4] = Suppl Fig 7a, TF reporter (S132) only
[5] = Suppl Fig 7e, GEMS reporter (pLS566) only
[6] = Fig5c SEAP via AIR-2-GEMS, four-parameter fit

`CN(C)CC#Cc1ccc(OCCCc2sc(N3CCc4cccc(C(=O)Nc5nc6ccccc6s5)c4C3)nc2C(=O)O)c(F)c1` [Drug-1, A-1155463] was tested, and the “Reporter signal, drug specificity” value ([1]; CDH1) was 10.7853 and 9.721 and 10.2555, the “Reporter signal, drug specificity” value ([1]; CDH3) was 120.91 and 123.106 and 130.139 and the Reporter background signal [2, 4] was 2.1563 and 2.182 and 2.388. For the same compound, the Reporter background signal [2, 5] was 2.888 and 3.062 and 3.039, the “AIR-1-GEMS controlled SEAP expression” value ([3]; Fig S13b, Drug-1 0.01 nM) was 2.034 U/L and 2.266 U/L and 2.426 U/L and the “CDH-3-TF controlled Luciferase expression” value ([3]; Fig S13b, Drug-1 0.01 nM) was 63197 RLU and 77075 RLU and 76343 RLU. The “AIR-1-GEMS controlled SEAP expression” value ([3]; Fig S13b, Drug-1 0.1 nM) was 2.577 U/L and 3.504 U/L and 1.937 U/L, the “CDH-3-TF controlled Luciferase expression” value ([3]; Fig S13b, Drug-1 0.1 nM) was 69663 RLU and 84855 RLU and 75827 RLU and the “AIR-1-GEMS controlled SEAP expression” value ([3]; Fig S13b, Drug-1 1 nM) was 2.677 U/L and 2.7744 U/L and 2.999 U/L. For the same compound, the “CDH-3-TF controlled Luciferase expression” value ([3]; Fig S13b, Drug-1 1 nM) was 81097 RLU and 77144 RLU and 82001 RLU, the “AIR-1-GEMS controlled SEAP expression” value ([3]; Fig S13b, Drug-1 3.16 nM) was 4.756 U/L and 3.455 U/L and 4.71 U/L and the “CDH-3-TF controlled Luciferase expression” value ([3]; Fig S13b, Drug-1 3.16 nM) was 79328 RLU and 72559 RLU and 71332 RLU. The “AIR-1-GEMS controlled SEAP expression” value ([3]; Fig S13b, Drug-1 10 nM) was 14.6262 U/L and 14.8753 U/L and 12.6214 U/L, the “CDH-3-TF controlled Luciferase expression” value ([3]; Fig S13b, Drug-1 10 nM) was 80379 RLU and 81140 RLU and 95805 RLU and the “AIR-1-GEMS controlled SEAP expression” value ([3]; Fig S13b, Drug-1 31.6 nM) was 24.9389 U/L and 23.1767 U/L and 24.3137 U/L. For the same compound, the “CDH-3-TF controlled Luciferase expression” value ([3]; Fig S13b, Drug-1 31.6 nM) was 89062 RLU and 83795 RLU and 94983 RLU, the “AIR-1-GEMS controlled SEAP expression” value ([3]; Fig S13b, Drug-1 100 nM) was 28.6367 U/L and 35.4252 U/L and 28.7763 U/L and the “CDH-3-TF controlled Luciferase expression” value ([3]; Fig S13b, Drug-1 100 nM) was 85794 RLU and 82597 RLU and 83527 RLU. The “AIR-1-GEMS controlled SEAP expression” value ([3]; Fig S13b, Drug-1 316 nM) was 33.0089 U/L and 34.8793 U/L and 29.7782 U/L, the “CDH-3-TF controlled Luciferase expression” value ([3]; Fig S13b, Drug-1 316 nM) was 82096 RLU and 72932 RLU and 89789 RLU and the “AIR-1-GEMS controlled SEAP expression” value ([3]; Fig S13b, Drug-1 1000 nM) was 37.3806 U/L and 38.9993 U/L and 31.1376 U/L. The “CDH-3-TF controlled Luciferase expression” value ([3]; Fig S13b, Drug-1 1000 nM) was 73138 RLU and 75381 RLU and 85198 RLU.
With `CC1(C)CCC(CN2CCN(c3ccc(C(=O)NS(=O)(=O)c4ccc(NCC5CCOCC5)c([N+](=O)[O-])c4)c(Oc4cnc5[nH]ccc5c4)c3)CC2)=C(c2ccc(Cl)cc2)C1` [Drug-2, Venetoclax] the “Reporter signal, drug specificity” value ([1]; CDH2) was 31.2802 and 28.6812 and 29.088, the Reporter background signal [2, 4] was 2.167 and 2.065 and 2.282 and the Reporter background signal [2, 5] was 2.782 and 3.488 and 3.279. For the same compound, the “Bottom (best-fit value)” value [3, 6] was 11.58, the “HillSlope (best-fit value)” value [3, 6] was 0.4637 and the “Span (best-fit value)” value [3, 6] was 174.4. For the same compound, the “Top (best-fit value)” value [3, 6] was 186, the “logIC50 (best-fit value)” value ([3]; Fig5c SEAP via AIR-2-GEMS, four-parameter fit, drug in nM) was 2.821 and the SEAP ([3]; 0.1 nM) was 16.9661 U/L and 14.3649 U/L and 16.0293 U/L. For the same compound, the SEAP ([3]; 0.5 nM) was 32.7217 U/L and 18.5086 U/L and 20.3629 U/L, the SEAP ([3]; 1 nM) was 9.507 U/L and 8.828 U/L and 9.449 U/L and the SEAP ([3]; 5 nM) was 12.4048 U/L and 14.8898 U/L and 15.5553 U/L. For the same compound, the SEAP ([3]; 10 nM) was 53.9453 U/L and 51.1 U/L and 44.2357 U/L, the SEAP ([3]; 50 nM) was 67.8694 U/L and 53.3505 U/L and 65.0318 U/L and the SEAP ([3]; 500 nM) was 99.6195 U/L and 87.3604 U/L and 83.3391 U/L. For the same compound, the SEAP ([3]; 1000 nM) was 116.832 U/L, the “AIR-2-GEMS controlled SEAP expression” value ([3]; Fig S13d, Drug-2 0.01 nM) was 59.8517 U/L and 85.418 U/L and 69.2527 U/L and the “CDH-3-TF controlled Luciferase expression” value ([3]; Fig S13d, Drug-2 0.01 nM) was 46959 RLU and 46941 RLU and 46901 RLU. For the same compound, the “AIR-2-GEMS controlled SEAP expression” value ([3]; Fig S13d, Drug-2 0.1 nM) was 118.67 U/L and 114.835 U/L and 107.758 U/L, the “CDH-3-TF controlled Luciferase expression” value ([3]; Fig S13d, Drug-2 0.1 nM) was 41162 RLU and 49637 RLU and 46127 RLU and the “AIR-2-GEMS controlled SEAP expression” value ([3]; Fig S13d, Drug-2 1 nM) was 115.899 U/L and 181.597 U/L and 152.021 U/L. For the same compound, the “CDH-3-TF controlled Luciferase expression” value ([3]; Fig S13d, Drug-2 1 nM) was 45977 RLU and 44865 RLU and 47068 RLU, the “AIR-2-GEMS controlled SEAP expression” value ([3]; Fig S13d, Drug-2 3.14 nM) was 134.444 U/L and 173.229 U/L and 165.776 U/L and the “CDH-3-TF controlled Luciferase expression” value ([3]; Fig S13d, Drug-2 3.14 nM) was 43947 RLU and 39268 RLU and 39254 RLU. For the same compound, the “AIR-2-GEMS controlled SEAP expression” value ([3]; Fig S13d, Drug-2 10 nM) was 190.854 U/L and 240.534 U/L and 260.228 U/L, the “CDH-3-TF controlled Luciferase expression” value ([3]; Fig S13d, Drug-2 10 nM) was 47016 RLU and 49191 RLU and 50470 RLU and the “AIR-2-GEMS controlled SEAP expression” value ([3]; Fig S13d, Drug-2 31.4 nM) was 299.546 U/L and 359.696 U/L and 315.099 U/L. The “CDH-3-TF controlled Luciferase expression” value ([3]; Fig S13d, Drug-2 31.4 nM) was 45761 RLU and 44242 RLU and 45130 RLU, the “AIR-2-GEMS controlled SEAP expression” value ([3]; Fig S13d, Drug-2 100 nM) was 326.848 U/L and 345.031 U/L and 379.553 U/L and the “CDH-3-TF controlled Luciferase expression” value ([3]; Fig S13d, Drug-2 100 nM) was 45390 RLU and 42062 RLU and 45223 RLU. The “AIR-2-GEMS controlled SEAP expression” value ([3]; Fig S13d, Drug-2 314 nM) was 491.977 U/L and 483.914 U/L and 518.642 U/L, the “CDH-3-TF controlled Luciferase expression” value ([3]; Fig S13d, Drug-2 314 nM) was 40043 RLU and 38537 RLU and 34569 RLU and the “AIR-2-GEMS controlled SEAP expression” value ([3]; Fig S13d, Drug-2 1000 nM) was 386.41 U/L and 334.548 U/L and 408.363 U/L. The “CDH-3-TF controlled Luciferase expression” value ([3]; Fig S13d, Drug-2 1000 nM) was 40262 RLU and 37715 RLU and 45464 RLU and the IC50 ([3]; Homo sapiens, HEK-293T, Fig5c SEAP turn ON via AIR-2-GEMS, four-parameter fit, given as IC50, read-out: IC50 (best-fit value)) was 662 nM.
